The test system of one experiment is GLUT1-DS mice. The experiment can be described thus: Rotarod motor function in GLUT1-DS transgenic mice. As to conditions: 10 mg/kg oral daily for 19 days. It counts as in vivo, mouse. The protocol: Transgenic mice on 129/SvJ genetic background in which GLUT1 has been knocked-down (GLUT1-DS mice) were used (Wang et al., […], Human Molecular Genetics, 15(7)). Mating colonies were composed of wild-type female mice and GLUT1-DS male mice, or GLUT1-DS female mice and wild-type male mice. F1 pups were genotyped after ear punching at weaning using PCR to determine genotype. Mice of 2 to 3 months of age were used.
Motor function was measured in wild-type (WT) and GLUT1-DS transgenic mice in the rotarod after 19-day long treatment with Veh. or Compound (1). Mice were administered every day orally vehicle or Compound (1) at a dose of 10 mg/kg. After 14 days of treatment, mice were exposed to rotarod training, which consisted in placing the mouse on an accelerating rotarod (4 to 40 r.p.m.) during 300 seconds. Mice that felt down before training ended, or at the end of training (300 seconds), were removed and put back to their cages. Training took place over 4 consecutive days, and on each training day mice performed 3 consecutive trials with 15 min inter-trial duration. One day after the last training (on the fifth day), mice were tested on the rotarod. Testing consisted in placing mice on the rotarod at a constant speed of 25 r.p.m. Latencies of mice before falling down were recorded.

The next experiment has as its system primary astrocytes. The experiment can be described thus: MTT mitochondrial activity assay. The experiment is classed as cell-based. Conditions: Mus musculus, Astrocyte, 24 h treatment. As to the method:
Primary cultures of cerebrocortical astrocytes were obtained from 1 to 2-day-old OF1 mouse pups (Charles River). Briefly, cortices were isolated and minced in small pieces under a dissecting microscope. The cells were incubated for 30 min at 37° C. in a solution containing 20 U/ml papain, 1 mM L-cysteine and 10 kU/ml DNase I. After dissociation, papain activity was stopped by the addition of fetal calf serum (FCS). Single-cell suspension was then obtained by mechanical dissociation, which consisted in cells trituration in a DMEM D7777 medium supplemented with 44 mm NaHCO3, 10 ml/L antibiotic/antimycotic solution and 10% FCS. The cells were seeded at an average density of ˜10′000 cells/cm^2 on poly-D-lysine coated 96- or 12-well culture plates, depending on their use, and grown in DMEM D7777 medium supplemented with 44 mm NaHCO3, 10 ml/L antibiotic/antimycotic solution and 10% FCS at 37° C. in a humidified atmosphere containing 5% CO2/95% air. Culture medium was renewed twice a week. Cells were stimulated and harvested between DIV14 and DIV17, when confluence and cell growth were optimal.
To monitor mitochondrial activity in astrocytes, which is linked to the metabolic process of glycolysis and production of lactate, astrocytes in 96-well plates were stimulated for 24 h (37° C. 5% CO2/95% air) with the compounds of the invention ranging from 0.2 to 200 μM.
After stimulation, 5 mg/ml thiazol blue tetrazolium bromide (MTT) in D5030 medium complemented with 5 mM D-glucose and 44 mM sodium bicarbonate (pH 7.2) was added to each well, and cells were incubated for 4 h at 37° C. (5% CO2). The medium was then removed and the amount of reduced MTT, i.e. formazan, solubilized in DMSO (50 μl/well) was determined using a spectrophotometer (absorbance of 570 nm).
The mitochondrial activity in primary astrocytes treated with Compounds (1) to (4) at concentrations ranging from 1 nM to 200 μM. After 24 h, mitochondrial activity was monitored in MTT colorimetric assay as described above (FIG. 3).

In a further experiment the test system is C57Bl/6 wild-type mice. The experiment is described as follows: Long-term memory test, inhibitory avoidance (IA). It counts as in vivo, mouse. The protocol: For pharmacodynamics (FIG. 5) and cognition (FIG. 7) experiments, adult male C57Bl/6J wild-type mice weighting 18-28 g (8 weeks of age) were used (Charles River). For ALS mouse models (FIG. 6), G93A SOD1 transgenic male and female mice on B6.SJL1-Gur/J background were used (Jackson Laboratory).
Animals were housed in groups of 3-5 in polypropylene cages (30×40×15 cm) with wire mesh top in a temperature (22±2° C.) and humidity (55±15%) controlled environment on a 12 hour light cycle (07.00-19.00 h lights on), except after surgeries when animal were housed individually. The samples (Vehicle or compounds of the invention) were administered per os (gavage) in a solution made of water supplemented with 0.4% hydroxypropyl methylcellulose (HPMC) Methocel 4KM (w/v) and 0.25% Tween-20 (v/v), as previously described (Thackaberry et al., 2010, Toxicol Sci., 117(2):485-92). Concentrations of the compounds tested ranged from 10 to 100 mg/kg.
IA test is a well-established memory paradigm in rodents that measures contextual memory associated with a mild electrical footshock in a specific context (the dark compartment of the IA chamber). Groups of 8-week old C57Bl/6 wild-type female mice were tested. Each mouse was handled for 5 minutes per day for at least 4 consecutive days to reduce animal's stress due to experimenter's presence/manipulation during test days. Inhibitory avoidance was carried out in an IA chamber (MedAssociates) that consists in a rectangular Perspex box divided into a safe and a shock compartment separated by an automatically operated sliding door. […] Memory retention was measured at 24 h or 3 weeks after training by placing the mouse back into the lit compartment and recording its latency (in seconds) to enter the dark compartment. […]
Memory was measured after oral administration of vehicle or compound (1) (100 mg/kg) to young adult male mice orally, and 20 min later a training for IA (FIG. 7). 24 hours and 3 weeks after training, latencies of mice to enter back into the dark compartment of the IA chamber, the place where they received the shock, were measured.

The mark [1] stands for this setting: single dose 100 mg/kg oral before training, vs vehicle.

In the case of `COc1cc2ccnc(Nc3ccc(OC(F)(F)F)cc3)c2cc1OC` [Example 1, 6,7-dimethoxy-N-(4-(trifluoromethoxy)phenyl)isoquinolin-1-amine], the “Rotarod performance (latency before falling, 25 r.p.m.)” value in the experiment with GLUT1-DS mice is given as “increased rotarod performance”. It took 34.4 µM to reach half-maximal inhibition in the experiment with primary astrocytes (IC50). Besides, the “Latency to enter the dark compartment at training” value in the experiment with C57Bl/6 wild-type mice (100 mg/kg oral, 20 min before training) is listed as “same latencies at training”. In the experiment with C57Bl/6 wild-type mice (setting [1]), the “Latency to enter the dark compartment, 3 weeks after training” value is recorded as “significantly higher” and the “Latency to enter the dark compartment, 24 h after training” value is listed as “significantly higher”.

For the origin of these results see patent US11925632B2, “Isoquinoline derivatives for use in treating GLUT1 deficiency syndrome” (GLIAPHARM SA, priority 2019, dated 2024).
